Data taken from patent US20200131156A1, “ARYLSULFONYLPYROLECARBOXAMIDE DERIVATIVES AS Kv3 POTASSIUM CHANNEL ACTIVATORS” (H. Lundbeck A/S, priority 2018, published 2020).
Where two headings read alike, the source gives them in different places. Blank lines part the entries; values can stand above or below the molecule they belong to.

Assays:
[1] = In vivo pharmacokinetic time profile in mice (plasma and brain); parameters: species or system mouse; details: for Kp / half-life / Cmax: male; for Kp: C57, mouse, brain, read-out: measured brain/plasma ratio; for half-life / Cmax: C57, plasma; for half-life / Cmax / Estimated unbound brain Cmax / Unbound plasma, Cmax: mouse; for half-life: read-out: T½ (converted)
Experimental: Male Sprague Dawley rats or male C57 mice from SLAC Laboratory Animal Co. Ltd., Shanghai, China or SIPPR/BK Laboratory Animal Co. Ltd., Shanghai, China were used for pharmacokinetic studies. Animals were group housed during acclimation and individually housed during in-life. The animal room environment was controlled (conditions: temperature 20 to 26° C., relative humidity 30 to 70%, 12 hours artificial light and 12 hours dark) and all animals have access to Certified Rodent Diet (Beijing KEAO XIELI Feed Co., Ltd. Beijing, P.R. China.) ad libitum. Animals were deprived of food overnight prior to dosing and fed approximately 4 hours post-dosing. Water was autoclaved before provided to the animals ad libitum.
For oral dosing, the dose formulation was administered via oral gavage.
Animals were anesthetized via isoflurane. At terminal time point, about 200 μL blood was collected from cardiac puncture or abdominal vein. All blood samples were transferred into microcentrifuge tubes containing 5 μL of K2EDTA (0.5 M) as anti-coagulant and placed on wet ice until processed for plasma by centrifugation (3,000 rpm for 5 minutes at 2 to 8° C.) within half an hour of collection and kept at −70±10° C. until LC/MSMS analysis
After blood collection, brain was harvested and washed twice with cold deionized water, and blotted on filter paper, weighted and frozen until processed. Brain samples were thawed and homogenized with 4-fold of cold water using Covaris (peak power 450.0, Duty Factor 20.0, Cycles/Burst 200). for 3 min, vortex for 10 second every 1 min. Samples were further stored at −79° C. (dilution factor=5) until bioanalysis

[2] = system: fast-spiking interneurons (FSI); test: Hippocampal brain slice current clamp recording, FSI excitability (AP firing); type: cell-based, rat
Experimental: Male Sprague Dawley rats (18˜24 days old) from Shanghai Laboratory Animal Center (Shanghai, China) were used for brain slice experiments. They were housed in groups of five in controlled conditions (temperature of 23±3° C., humidity of 40-70%, and 12:12 light-dark cycle with lights on at 5:00 am) and free access to food and water. All procedures were conducted in agreement with the guideline of Institutional Animal Care and Use Committee at ChemPartner. Ethical approval was obtained by the The Danish Animal Experimentation Inspectorate (journal no. 2014 15 0201 00339).
Animals were decapitated by a guillotine and their brains quickly removed and placed in ice-cold modified artificial cerebral spinal fluid (ACSF) containing (in mM): 110 sucrose, 60 NaCl, 3 KCl, 5 glucose, 28 NaHCO3, 1.25 NaH2PO4, 0.5 CaCl2 and 7 MgCl2, aerated with 95% O2/5% CO2. The brains were block-trimmed and glued onto the stage of a vibratome (VT1200S, Leica Microsystems Inc., Bannockburn, Ill., USA). Parasagittal hippocampal slices (300 μm) were cut and incubated in the regular carbogenated ACSF containing (in mM): 119 NaCl, 2.5 KCl, 1.2 Na2HPO4, 25 NaHCO3, 2.5 CaCl2, 1.3 MgCl2, 10 glucose at 35° C. for the first 60 min and then transferred to room temperature prior to recordings.
In the hippocampal CA1 pyramidal cell layer, fast-spiking interneurons (FSI) or pyramidal (PYR) cells were visualized using differential interference contrast-infrared (DIC-IR)-assisted microscopy and whole-cell patch clamp recordings performed using an Axon Multiclamp 700B amplifier (Molecular Devices, Union City, Calif.). FSI were selected based on non-pyramidal shape and multipolar dendrites. Putative FSI were only accepted for experiments if they fulfilled the following electrophysiological criteria: short duration action potentials (APs <1 ms), large after hyperpolarizations, and, in response to sustained current injection, high frequency AP firing (>100 Hz) with limited spike frequency adaptation. Patch pipettes (4-5MΩ) were pulled from thick-walled borosilicate glass tubing (O.D.: 1.5 mm, I.D.: 0.75 mm; Sutter Instrument, Novato, Calif., USA).
Whole cell patch clamp recordings in current clamp mode were used to study neuronal excitability. AP firing was recorded in the presence of 50 μM APV, 10 μM DNQX and 10 μM Gabazine to block all synaptic transmission mediated by NMDA, AMPA and GABAA receptors. Patch pipettes were filled with an intracellular solution containing (in mM): 110 KMeSO4, 10 HEPES, 1 EGTA, 2 MgCl2, 4 Na2-ATP, 0.4 TRIS-GTP, 10 Tris2-Phosphocreatine, pH adjusted to 7.3 with KOH. The osmolarity was adjusted to 290 mOsm with sucrose. The holding potential was maintained continuously at −70 mV by manual DC injection. Series resistance (10-20 MΩ after “break-in”) was 90% compensated and monitored constantly during the entire experiment by “bridge”-balancing of the instantaneous voltage responses to a hyperpolarizing current pulse before each depolarizing stimulus delivery. A series of depolarizing current steps (800 ms-long) were applied every 3 min. Following at least 15 min of stable activity, Kv3 channel modulators were applied to the ACSF at increasing concentrations.

Kp ([1]; subcutaneous): 0.3 | half-life ([1]; SC administration, dose 3 (mg/mg) (Table 7)): 42 min | Cmax ([1]; SC administration, dose 3 (mg/mg), vehicle 10% HP-betaCD (Table 7)): 3020 ng/mL | half-life ([1]; SC administration, dose 30 (mg/mg) (Table 7)): 36 min | Cmax ([1]; SC administration, dose 30 (mg/mg), vehicle 10% HP-betaCD (Table 7)): 22000 ng/mL | Estimated unbound brain Cmax ([1]; SC, dose 3 (mg/mg), based on brain/plasma ratio 0.3 and unbound fraction in brain 11%): 289 nM | Unbound plasma, Cmax ([1]; SC, dose 3 (mg/mg), unbound fraction in plasma 8%): 700 nM | Estimated unbound brain Cmax ([1]; SC, dose 30 (mg/mg), based on brain/plasma ratio 0.3 and unbound fraction in brain 11%): 2100 nM | Unbound plasma, Cmax ([1]; SC, dose 30 (mg/mg), unbound fraction in plasma 8%): 5094 nM
Compound: Cc1ccc(S(=O)(=O)n2ccc(C(=O)NCc3ncco3)c2)cc1 [Compound 86, 1-(4-methylbenzene-1-sulfonyl)-N-[(1,3-oxazol-2-yl)methyl]-1H-pyrrole-3-carboxamide]
FSI excitability (number of APs) ([2]; 10 μM): slight reduction in excitability | FSI excitability (number of APs) ([2]; 0.3 and 1 μM): increased excitability

Kp [1]: 0.4 | Cmax ([1]; 3 mg/kg, PO administration, dose 3 (mg/mg), vehicle 10% HP-betaCD): 274 ng/mL | half-life ([1]; 3 mg/kg, PO administration, dose 3 (mg/mg)): 60 min | Cmax ([1]; 3 mg/kg, SC administration, dose 3 (mg/mg), vehicle 10% HP-betaCD): 1130 ng/mL | half-life ([1]; 3 mg/kg, SC administration, dose 3 (mg/mg)): 30 min | Cmax ([1]; 10 mg/kg, SC administration, dose 10 (mg/mg), vehicle 10% HP-betaCD): 6360 ng/mL | half-life ([1]; 10 mg/kg, SC administration, dose 10 (mg/mg)): 78 min | Cmax ([1]; 30 mg/kg, PO administration, dose 30 (mg/mg), vehicle 10% HP-betaCD): 7350 ng/mL | half-life ([1]; 30 mg/kg, PO administration, dose 30 (mg/mg)): 60 min | Estimated unbound brain Cmax ([1]; PO, dose 3 (mg/mg), based on brain/plasma ratio 0.4 and unbound fraction in brain 10%): 28 nM | Unbound plasma, Cmax ([1]; PO, dose 3 (mg/mg), unbound fraction in plasma 10%): 70 nM | Estimated unbound brain Cmax ([1]; PO, dose 30 (mg/mg), based on brain/plasma ratio 0.4 and unbound fraction in brain 10%): 753 nM | Unbound plasma, Cmax ([1]; PO, dose 30 (mg/mg), unbound fraction in plasma 10%): 1895 nM | Estimated unbound brain Cmax ([1]; SC, dose 3 (mg/mg), based on brain/plasma ratio 0.4 and unbound fraction in brain 10%): 116 nM | Unbound plasma, Cmax ([1]; SC, dose 3 (mg/mg), unbound fraction in plasma 10%): 291 nM | Estimated unbound brain Cmax ([1]; SC, dose 10 (mg/mg), based on brain/plasma ratio 0.4 and unbound fraction in brain 10%): 656 nM | Unbound plasma, Cmax ([1]; SC, dose 10 (mg/mg), unbound fraction in plasma 10%): 1639 nM
Compound: Cc1cnc(CNC(=O)c2ccn(S(=O)(=O)c3ccc(F)cc3C)c2)cn1 [Compound 90, 1-(4-fluoro-2-methylbenzene-1-sulfonyl)-N-[(5-methylpyrazin-2-yl)methyl]-1H-pyrrole-3-carboxamide]
FSI excitability (number of APs) ([2]; 10 μM): decreased, reaching a level below baseline | FSI excitability (number of APs) ([2]; 0.3 and 1 μM): increase in FSI excitability | FSI excitability ([2]; low concentrations (0.1 and 1 μM)): increases FSI excitability
